We go through 94 molecules from a melting point compilation (Tetko et al.; mined from patent text by program, amines drawn as free bases though some values may be those of a salt).

Turning to `CC(C)(C)OC(=O)NCC(=O)Nn1cccc1C(=O)c1ccccc1F`, the melting point (as a rule, the temperature, or range, at which the solid turns liquid) was 114 to 116 °C.

Consider `CCCc1c(OCCCCSCCC(=O)O)ccc(C(C)=O)c1O`, for which the melting point fell in the range of 75 to 77 °C.

`COC(=O)Cc1ccc(C(=O)CN2CCN(c3ccncc3)CC2)cc1` yielded a melting point of 127 to 129 °C.

On to `CC(C)Nn1c(CO)nc2c(N)nc3ccccc3c21`, for which the melting point fell in the range of 228 to 229 °C.

For the molecule `N#CC#Cc1ccc(O)cc1`, the melting point is 134 to 137 °C.

Consider `NS(=O)(=O)c1ccccc1C(Cl)Cl`, for which the melting point fell in the range of 131 to 132 °C.

In turn, `CCOC(=O)Cc1c[nH]c2nc(Nc3ccccc3)nn2c1=O` returned a melting point of 255 to 257 °C.

`CCCCCCCc1nnc(-c2ccc(O)cc2)s1`: the melting point amounted to 100 °C.

On to `O=S(=O)(Cc1cccs1)c1ncc(Br)cn1`, for which the melting point lay within 124 to 126 °C.

As to `O=C1CCC(N2C(=O)c3cccc(NC(=O)c4cccc(C(F)(F)F)c4)c3C2=O)C(=O)N1` (centres undefined), the melting point is 257 to 259 °C.

`CN1CCC(n2cc(C3=C(c4cn(C)c5ccccc45)C(=O)NC3=O)c3ccccc32)CC1` had a melting point of 316 to 318 °C.

Consider `O=C(NCc1cc(C(F)(F)F)cc(C(F)(F)F)c1)c1oc(=O)c2ncccc2c1-c1ccccc1`, for which the melting point lay within 129 to 130 °C.

Take `CCS(=O)(=O)Oc1ccccc1S(N)(=O)=O`: the melting point is 90 to 92.5 °C.

On to `N#CCC(=O)Nc1ccc(-c2nncn2-c2ccc(F)cc2)cc1`, for which the melting point lay in the range of 223 to 225 °C.

In the case of `Cn1ccc(O)cc1=O`, the melting point fell in the range of 165 to 169 °C.

Molecule `NC(=O)CCc1cccc2c1C[C@@H](CCCCc1ccccc1)O2` came in with a melting point of 92 to 93 °C.

`CCOc1c(C)c(C)c(O)c(CNCCOc2cc(C)ccc2C(C)C)c1C` came in with a melting point of 99 to 101 °C.

For `O=C(OCc1ccccc1)N1CCOc2c(Br)cc(Cl)cc21`, the melting point lay in the range of 95 to 97.7 °C.

As to `COC(=O)c1ccc(N=CC=Cc2ccccc2)cn1`, the melting point was in the range of 128 to 131 °C.

For the molecule `CC(C)(C)n1nnc(-c2ccccc2-c2ccc(C=O)cc2)n1`, the melting point lay in the range of 71 to 73 °C.

Regarding `O=C(Cl)c1cc([N+](=O)[O-])c(Cl)c([N+](=O)[O-])c1`, the melting point was 55 to 57 °C.

In the case of `O=[N+]([O-])c1ccc2sc(NCCCO)nc2c1`, the melting point was 140 to 144 °C.

`CCOC(=O)C(c1ccccc1)n1cccc1` (centres undefined) came in with a melting point of 51 to 53 °C.

The molecule `O=C(CCCCCCN(Cc1ccccc1)C(=O)c1cn2c3c(cccc13)CCC2)NO` gave a melting point of 71 to 73 °C.

For `CC(C)C(CO)(CO)[N+](=O)[O-]`, the melting point was in the range of 67 to 72 °C.

The molecule `O=C(Nc1ccc(-n2nc(C(F)(F)F)cc2C(F)(F)F)cc1)c1ccc(F)cc1C(F)(F)F` gave a melting point of 178 to 179 °C.

Turning to `Cc1[nH]c(C=O)c(C)c1CCO`, the melting point was in the range of 125 to 127 °C.

The molecule `COC(=O)c1ccc(C(O)C#Cc2ccccc2)cc1` (centres undefined) yielded a melting point of 48 to 50 °C.

`Cn1c(=O)c(=NO)nc(-c2ccccc2)c2cnccc21` yielded a melting point of 223 to 224 °C.

`COc1ccc(C2CC(=O)N(C(=S)NCc3ccc(F)cc3)N2C)cc1OC1CCCC1` (centres undefined) yielded a melting point of 48 to 51 °C.

In turn, `Cn1c(=O)c2nc(-c3ccc(/C=C/C(=O)O)cc3)[nH]c2n(C)c1=O` displayed a melting point of 299 to 301 °C.

Turning to `Cc1ccc(C=C2C(=O)N(c3cc(F)ccc3F)C(=O)N2C)cc1`, the melting point lay in the range of 136 to 140 °C.

`COc1ccc(N2CCN(c3c(C)c4c(c(OC(C)C)c3C)OC(C)C4)CC2)cc1` (centres undefined) gave a melting point of 110 to 112 °C.

The molecule `CCOC(=O)CCCCCOC1OC(COC(C)=O)C(OC(C)=O)C(OC(C)=O)C1NC(C)=O` (centres undefined) had a melting point of 101 to 102 °C.

For `OCc1c(F)ccc(-n2cccc2)c1F`, the melting point is under 60 °C.

`Cc1nc2ccc(Cl)cc2nc1Cl`: the melting point was 194 to 196 °C.

The molecule `CC(=O)c1c(C)cc(=O)[nH]c1C` displayed a melting point of 160 to 162 °C.

On to `NC(=O)c1c(Cl)ccc(Br)c1F`, for which the melting point was in the range of 157 to 158 °C.

`COc1ccc(-c2cccc(C(N)=O)c2)cc1OC1CCCC1`: the melting point lay within 133 to 135 °C.

The molecule `Nc1ccc(C2=CCOCC2)c(F)c1` registered a melting point of 86 to 88 °C.

In turn, `NCC(c1ccc(Cl)cc1)C1CCCCCC1O` (mixture of isomers) registered a melting point of 92 to 93 °C.

On to `Cc1cn(-c2cc(NC(=O)c3ccc(Cl)c(C#Cc4ccc(NC5CC5)nn4)c3)cc(C(F)(F)F)c2)cn1`, for which the melting point was in the range of 213 to 215 °C.

The molecule `O=C(O)c1ccc(NCCCc2ccccc2)cc1` returned a melting point of 162 to 163 °C.

The molecule `CCOC(=O)C1=C(C)Nc2cc[nH]c(=O)c2C1c1ccccc1Cl` (centres undefined) registered a melting point of 204 to 205 °C.

`CC(=O)OC1CSC(Oc2cncc(-c3cnn(C)c3)c2)C(OC(C)=O)C1OC(C)=O` (centres undefined) registered a melting point of 68 °C.

Molecule `O=C(c1ccc(F)cc1)N1CCC[C@H](c2nc(-c3ccncc3)no2)C1` showed a melting point of 113 to 115 °C.

For the molecule `CC1(C)CC(C2CCC(O)CC2)CC(C)(C)N1` (centres undefined), the melting point was 145 to 150 °C.

`COCOc1c(C)cc(-c2ccc(C(=O)OC)cc2)cc1C` gave a melting point of 100 to 101 °C.

`Cn1c2c(c3cccc(F)c31)C(=O)NCCC2` showed a melting point of 233 to 235 °C.

`NS(=O)(=O)c1cccc2c1SCC=C2` showed a melting point of 214 to 216 °C.

Turning to `CCOC(=O)C=C(C)Nc1ccc2nc[nH]c2c1`, the melting point fell in the range of 160 to 162 °C.

As for `Cc1nc2c(O[C@@H]3c4ccccc4C[C@H]3O)cc(Cl)cn2c1N` (relative stereo), the melting point lay in the range of 223 to 225 °C.

Regarding `OC(c1cccc(Oc2ccccc2)n1)C(F)(F)F` (centres undefined), the melting point was in the range of 51.5 to 53.5 °C.

The molecule `CCN(CC(O)CCl)c1ccc2c(c1)C(=O)N(C)C2=O` (centres undefined) came in with a melting point of 123 °C.

The molecule `COc1ccc(Cn2c(=O)c3c(Cl)cc(Cl)cc3n(Cc3ccccc3)c2=O)cc1` showed a melting point of 138 to 143 °C.

`O=c1cc(NCCNCCOc2cccc3c2OCCO3)cn[nH]1` had a melting point of 81 to 83 °C.

In turn, `CS(=O)(=O)OC1Cc2ccccc2C1` registered a melting point of 75 to 77 °C.

`Cn1cccc1CCN1C(=O)NCc2c(-c3ccccc3)cccc21` displayed a melting point of 158 to 161 °C.

With `CNC#CCC1=Cc2ccccc2Sc2ccc(Cl)cc21`, the melting point lay within 92 to 94 °C.

As to `O=[N+]([O-])c1ccc2nc(Cl)[nH]c2c1`, the melting point was 235 to 237 °C.

Consider `CCOc1c(C(F)(F)F)cc([N+](=O)[O-])c(Nc2ncc(C(F)(F)F)cc2Cl)c1[N+](=O)[O-]`, for which the melting point fell in the range of 106 to 108 °C.

For the molecule `O=C(O)C1=COCC(C(=O)O)=C1`, the melting point fell in the range of 87 to 90 °C.

Consider `O=C(Cc1ccc(CN2CCCC2)cc1)NCc1ccc(Br)cc1`, for which the melting point is 107 to 109 °C.

`CC(C)(C)OC(=O)NC(Cc1ccccc1)C(=O)Oc1ccc2ccccc2c1` (centres undefined) gave a melting point of 118 to 119 °C.

On to `N#CN=C(Nc1cnc(Cl)c(N)c1)Oc1ccccc1`, for which the melting point lay in the range of 219 to 220 °C.

`COc1ccc2cc(-c3ccc(O)cc3)[nH]c(=O)c2c1`: the melting point worked out at 255 °C.

`COc1ccc(C=C2SC(N3CCOCC3)=NC2=O)cc1-c1ccc(O)c(C23CC4CC(CC(C4)C2)C3)c1`: the melting point was 339 to 343 °C.

`O=c1cc(C(F)(F)F)cnn1-c1cc(Oc2ncccn2)c(Cl)cc1F` had a melting point of 156 to 160 °C.

The molecule `Cn1cc(C(=O)CCN2CCCCC2)cc1C(=O)c1cccc2ccccc12` registered a melting point of 141 to 143 °C.

As for `CC1(C)CC(=O)Nc2ccc([N+](=O)[O-])cc21`, the melting point is 202 to 204 °C.

Consider `CCOC(=O)c1cnn2c1nc(OCCCN(C)C)c1cnc3c(cnn3CC)c12`, for which the melting point was in the range of 106 to 107 °C.

Consider `CN1C(=N)N(C)C(=Cc2c[nH]c3ccccc23)C1=O`, for which the melting point lay within 232 to 233 °C.

`CCOC(=O)C1=C(C)NC2=C(C(=O)N(CCO)C2)C1c1ccccc1[N+](=O)[O-]` (centres undefined) had a melting point of 210 to 211 °C.

The molecule `COc1cc2c(cc1OC)C(c1ccc(SC(F)(F)F)cc1)CNCC2` (centres undefined) registered a melting point of 95 °C.

As to `Cc1sc(N2CCOCC2)nc1CCOc1ccc(C[C@H](Nc2ccccc2C(=O)c2ccccc2)C(=O)O)cc1`, the melting point lay within 148 to 151 °C.

Molecule `C#CCN1C(=O)C(C)Oc2cc(Cl)c(-c3ccc(C(F)(F)F)n(C)c3=O)cc21` (centres undefined) registered a melting point of 203 to 204 °C.

Turning to `CCCc1cc2c(cc1O)C(C)(C)CCC2(C)C`, the melting point lay in the range of 96 to 97 °C.

`O=C(C[C@H](C(=O)N[C@H](CO)Cc1ccccc1)n1cc(-c2ccc(-c3ccccc3)cc2)cn1)OCc1ccccc1` gave a melting point of 116 to 117 °C.

Molecule `CC(O)Cn1ccc2ccc(F)c(Cl)c21` (racemic) displayed a melting point of 85 to 87 °C.

`CCN(CC)c1ccc(C(=O)C#Cc2ccnc3ccccc23)cc1` returned a melting point of 163 to 165 °C.

For the molecule `Cc1cnc(C#N)c(Cl)n1`, the melting point fell in the range of 63 to 65 °C.

`CCCn1nc2c(N)nc3ccccc3c2c1CC(C)(C)NC(=O)c1ccc(F)cc1` registered a melting point of 168 to 169 °C.

On to `C#CCc1c(C)nc2c(NCc3ccccc3Cl)cccn12`, for which the melting point lay in the range of 115 to 116 °C.

The molecule `O=C(O)C(Cc1ccc(OCCn2c(-c3ccccc3)nc3ccccc32)cc1)n1cccc1` (centres undefined) registered a melting point of 210 to 212 °C.

`CC(C)(CCn1cnnc1)NCC(O)c1ccc(OCc2ccccc2)c(CO)c1` (centres undefined): the melting point is 139 to 141 °C.

The molecule `COc1c(Cl)ccc(-c2cc(N)c(Cl)c(C(=O)NOCC(C)C)n2)c1F` showed a melting point of 145 to 148 °C.

The molecule `CCCCc1c[nH]c2cccc(SC)c2c1=O` showed a melting point of 144 °C.

With `COc1nc2cc(Cl)cc(C#CCO)c2nc1OC`, the melting point lay within 137 to 140 °C.

For `O=C(CNS(=O)(=O)c1ccc2[nH]c(=O)c(=O)[nH]c2c1)OCc1ccccc1`, the melting point was in the range of 270 to 280 °C.

`COc1cc2nc(N3CCN(c4nc5ncccc5o4)CC3)nc(N)c2cc1OC` returned a melting point of over 250 °C.

Turning to `CC12CCC(=O)C=C1CCC(=Cc1cccs1)C2=O` (centres undefined), the melting point is 107 °C.

Take `C=CCOc1cc2c(cc1CC=C)N(CC=C(C)C)C(=O)CC2`: the melting point lay within 86 to 88 °C.

Molecule `CCCCNC1=NS(=O)(=O)c2ccc(Cl)cc2N1` had a melting point of 267 to 269 °C.

In turn, `CC(C)Cn1c(CNC(=O)OC(C)(C)C)c(-c2cccs2)c2cc(C(=O)O)ccc2c1=O` came in with a melting point of 224 to 226 °C.
